{"source": "paper PMC4669789", "about": "“Selective inhibition of HDAC8 decreases neuroblastoma growth in vitro and in vivo and enhances retinoic acid-mediated differentiation” (Cell Death & Disease, 2015)", "key": {"NMRI Foxn1 nude mice": {"test_system": "NMRI Foxn1 nude mice", "assay": "Determination of MTD and dose-limiting toxicities", "protocol": "(§1) Each dose was tested in a cohort of three animals. Resulting MTDs were validated within cohorts of eight animals for each inhibitor. […] As a reference, the blood of 12 untreated NMRI Foxn1 nude mice was analyzed. […] Vorinostat was used as a control for unselective HDAC inhibition.\n(§2) DLTs were monitored by observation of general condition and determination of body weight. We used several criteria for objectively measuring DLT. These included a decrease in body weight of ≥20% compared with baseline body weight, blood analysis of standard parameters for clinical chemistry and hematology (central laboratory of University Hospital Heidelberg, Heidelberg, Germany) and organ histopathology (formalin-fixed, paraffin-embedded organs), by H&E stain for the detection of necrosis (Prof. Dr. AD Gruber, Institute for Veterinary Pathology, Berlin, Germany)."}, "[1]": {"assay": "Determination of MTD and dose-limiting toxicities", "conditions": "NMRI Foxn1 nude, mouse, in vivo, ip", "protocol": "as §1, §2"}, "PBMC": {"test_system": "PBMC", "assay": "Western blot of histone 4 and α-tubulin acetylation in PBMC of treated mice", "assay_type": "in vivo, mouse", "conditions": "MTD concentrations, 2 h after intraperitoneal injection", "protocol": "Whole blood (100 μl) was collected from the femoral vein of untreated athymic NMRI nude mice (HsdCpb:NMRI-Foxn1^nu; Harlan Laboratories Inc.), and respective animals were killed 2 h after intraperitoneal injection of substances. For the analysis of whole acetylation levels, mice were killed at half-life time of the inhibitors. Whole blood with heparin was added to RBC lysis buffer (diluted 1 : 10) (BioLegend, San Diego, CA, USA) at a ratio of 1 : 4. Next, red blood cell lysis was performed according to the manufacturer's instructions. PBMCs were lysed in SDS lysis buffer for western blot or processed for FACS analysis.\nWestern blot analysis was performed as described previously.[15] For detection of phosphoproteins, PhosStop (Roche, Penzberg, Germany) was added to the lysis buffer. The following antibodies were used for detection: anti-HDAC8 (H-145) (polyclonal; Santa Cruz, Santa Cruz, CA, USA), anti-acetyl tubulin (clone 6-11B-1; Sigma), anti-acetyl-histone H4 (polyclonal; Upstate, Lake Placid, NY, USA), anti-acetyl-SMC3 (provided by Prof. K Shirahige, University of Tokyo, Tokyo, Japan), anti p21^waf1/cip1 (clone CP74; Merck), anti-Trk (C-14) (polyclonal; Santa Cruz), anti-neurofilament-M (polyclonal; Merck), anti-β-actin (clone AC-15; Sigma), anti-P-CREB (Ser133; Cell Signaling, Danvers, MA, USA), anti-CREB (48H2; Cell Signaling) and anti-GAPDH (clone 6C5; Merck)."}, "BE(2)-C cells": {"test_system": "BE(2)-C cells", "assay": "Western blot of histone 4, α-tubulin and SMC3 acetylation", "assay_type": "cell-based, human", "protocol": "Western blot analysis was performed as described previously.[15] For detection of phosphoproteins, PhosStop (Roche, Penzberg, Germany) was added to the lysis buffer."}, "HDAC9": {"molecular_target": "HDAC9 (Homo sapiens, UniProt Q9UKV0)", "sequence (Q9UKV0 631-978 limits assumed)": "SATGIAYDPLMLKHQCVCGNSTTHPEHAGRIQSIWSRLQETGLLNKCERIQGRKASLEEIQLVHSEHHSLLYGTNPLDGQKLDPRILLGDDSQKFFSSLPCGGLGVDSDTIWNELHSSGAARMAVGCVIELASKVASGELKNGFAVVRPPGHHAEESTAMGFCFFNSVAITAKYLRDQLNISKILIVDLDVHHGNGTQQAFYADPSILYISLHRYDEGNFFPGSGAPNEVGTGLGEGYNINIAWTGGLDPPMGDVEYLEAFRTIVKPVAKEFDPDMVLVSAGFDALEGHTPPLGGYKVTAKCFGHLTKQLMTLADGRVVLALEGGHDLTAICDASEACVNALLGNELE", "assay": "In vitro HDAC activity assay (Reaction Biology)", "assay_type": "biochemical", "conditions": "cell-free; read-out: IC50 values of HDAC8 inhibitors, HDAC9", "protocol": "(§3) Peptide substrate was conjugated with AMC. […] The HDAC reaction was performed at 30 °C for 2 h before adding the developer reagent. The free AMC was detected with excitation of 360 nm and emission 460 nm at kinetic mode for 90 min. IC50 values were calculated with GraphPad Prism version 3.0a (GraphPad Software Inc., San Diego, CA, USA)."}, "HDAC6": {"molecular_target": "T1, HDAC6 (Homo sapiens, UniProt Q9UBN7)", "T1 sequence (Q9UBN7 1-1215)": "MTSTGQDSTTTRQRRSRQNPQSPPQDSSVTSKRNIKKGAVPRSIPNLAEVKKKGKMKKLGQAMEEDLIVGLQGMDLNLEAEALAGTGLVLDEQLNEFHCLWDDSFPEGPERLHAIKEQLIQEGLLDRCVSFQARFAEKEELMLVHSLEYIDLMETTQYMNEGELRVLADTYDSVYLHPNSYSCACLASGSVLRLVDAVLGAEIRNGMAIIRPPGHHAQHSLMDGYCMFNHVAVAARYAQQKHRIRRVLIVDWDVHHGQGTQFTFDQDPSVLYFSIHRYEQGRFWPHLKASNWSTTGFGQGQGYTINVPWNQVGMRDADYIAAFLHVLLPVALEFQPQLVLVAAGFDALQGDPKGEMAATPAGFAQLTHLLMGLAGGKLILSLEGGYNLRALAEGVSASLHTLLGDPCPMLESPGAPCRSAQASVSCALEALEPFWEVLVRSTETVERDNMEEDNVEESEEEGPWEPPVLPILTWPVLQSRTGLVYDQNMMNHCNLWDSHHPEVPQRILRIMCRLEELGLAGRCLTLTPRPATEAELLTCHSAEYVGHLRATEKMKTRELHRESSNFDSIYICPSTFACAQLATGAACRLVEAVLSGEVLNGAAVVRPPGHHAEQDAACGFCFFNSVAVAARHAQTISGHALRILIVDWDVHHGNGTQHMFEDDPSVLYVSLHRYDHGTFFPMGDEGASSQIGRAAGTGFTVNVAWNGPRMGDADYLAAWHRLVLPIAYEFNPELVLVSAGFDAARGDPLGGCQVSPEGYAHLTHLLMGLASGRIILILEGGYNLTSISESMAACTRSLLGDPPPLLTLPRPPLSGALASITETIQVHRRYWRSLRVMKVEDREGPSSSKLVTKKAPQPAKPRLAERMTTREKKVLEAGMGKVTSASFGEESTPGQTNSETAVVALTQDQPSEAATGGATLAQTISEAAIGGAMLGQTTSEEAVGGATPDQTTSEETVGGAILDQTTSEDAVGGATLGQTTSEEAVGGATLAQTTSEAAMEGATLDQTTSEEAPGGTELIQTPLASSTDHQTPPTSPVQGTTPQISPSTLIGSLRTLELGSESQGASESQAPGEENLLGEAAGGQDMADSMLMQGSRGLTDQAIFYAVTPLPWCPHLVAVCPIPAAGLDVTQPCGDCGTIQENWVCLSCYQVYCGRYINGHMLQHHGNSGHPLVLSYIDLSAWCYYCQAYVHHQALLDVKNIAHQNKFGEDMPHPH", "assay": "In vitro HDAC activity assay (Reaction Biology)", "assay_type": "biochemical", "protocol": "as §3"}, "HDAC4": {"molecular_target": "HDAC4 (Homo sapiens, UniProt P56524)", "sequence (P56524 655-1084 limits assumed)": "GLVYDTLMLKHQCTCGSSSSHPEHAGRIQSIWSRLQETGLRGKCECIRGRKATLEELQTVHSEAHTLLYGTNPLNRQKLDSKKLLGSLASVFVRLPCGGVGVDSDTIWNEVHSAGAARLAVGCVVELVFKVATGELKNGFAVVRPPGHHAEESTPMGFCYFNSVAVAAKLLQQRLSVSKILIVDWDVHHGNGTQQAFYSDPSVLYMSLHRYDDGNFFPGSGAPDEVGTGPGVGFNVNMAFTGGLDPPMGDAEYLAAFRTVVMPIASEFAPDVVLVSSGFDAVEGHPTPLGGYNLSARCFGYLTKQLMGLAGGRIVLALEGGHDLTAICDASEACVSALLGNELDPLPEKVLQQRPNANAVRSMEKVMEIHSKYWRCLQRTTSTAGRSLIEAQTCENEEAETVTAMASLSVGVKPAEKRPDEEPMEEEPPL", "assay": "In vitro HDAC activity assay (Reaction Biology)", "assay_type": "biochemical", "conditions": "cell-free; read-out: IC50 values of HDAC8 inhibitors, HDAC4", "protocol": "as §3"}, "PBMCs": {"test_system": "PBMCs", "assay": "Whole lysine acetylation in PBMC after intraperitoneal administration (FACS)", "assay_type": "in vivo, mouse", "conditions": "50 mg/kg/d intraperitoneal; solvent 32.1", "procedure": "Both inhibitors were intraperitoneally injected into NMRI Foxn1 nude mice in increasing doses from 40 up to 400 mg/kg per day for 2 × 5 days. Each dose was tested in a cohort of three animals. Resulting MTDs were validated within cohorts of eight animals for each inhibitor. […] As a reference, the blood of 12 untreated NMRI Foxn1 nude mice was analyzed. […] Vorinostat was used as a control for unselective HDAC inhibition.\nCells were permeabilized by incubation with 50 μg/ml digitonin for 6 min at RT. Cells were incubated with primary antibody overnight at 4 °C. After staining with Cy3-conjugated anti-rabbit antibody, cells were analyzed by FACS using CellQuest software (BD Biosciences, San Jose, CA, USA)."}, "[2]": {"conditions": "working concentrations: 40 μM Cpd2, 4 μM PCI-34051 and PCI-48000"}}}
{"smiles": "O=C(NO)c1cccc2ccccc12", "note": "[Cpd2, 1-naphthohydroxamic acid]", "values": [{"measurement": "Dose-limiting toxicities (DLTs)", "setting": "NMRI Foxn1 nude mice; intraperitoneal, increasing doses 40 up to 400 mg/kg per day", "result": "weight loss and signs of liver toxicity"}, {"measurement": "body weight and blood parameters at MTD", "setting": "NMRI Foxn1 nude mice; mouse, in vivo", "result": "neither body weight (Figure 2a) nor blood parameters were critically changed"}, {"measurement": "MTD", "setting": "[1]", "result": 50, "unit": "mg/kg/day"}, {"measurement": "tubulin and histone 4 acetylation in PBMC", "setting": "PBMC", "result": "absence of tubulin acetylation and absence of histone 4 acetylation"}, {"measurement": "tubulin acetylation (HDAC6 off-target activity)", "setting": "BE(2)-C cells; increasing concentrations far above IC50 values (up to 200 μM Cpd2, 100 μM PCI-34051)", "result": "induced tubulin acetylation"}, {"measurement": "SMC3 acetylation (HDAC8 substrate)", "setting": "BE(2)-C cells; [2]", "result": "increase in acetylation level"}, {"measurement": "histone 4 acetylation (HDAC1-3 substrate)", "setting": "BE(2)-C cells; [2]", "result": "absence of HDAC1-3 substrate acetylation"}, {"measurement": "tubulin acetylation (HDAC6 substrate)", "setting": "BE(2)-C cells; [2]", "result": "absence of HDAC6 substrate acetylation"}, {"measurement": "IC50", "setting": "HDAC9", "result": "> 75.6", "unit": "µM"}, {"measurement": "IC50", "setting": "HDAC6; cell-free, read-out: IC50 values of HDAC8 inhibitors, HDAC6", "result": 75.6, "unit": "µM"}, {"measurement": "concentrations above which HDAC6 and HDAC1 are potential off-target HDACs", "setting": "HDAC6; from cell-free assays of HDACs 1–11", "result": "above 75 μM"}, {"measurement": "IC50", "setting": "HDAC4", "result": "> 75.6", "unit": "µM"}, {"measurement": "whole acetyl-lysine mean fluorescent values (Blank-corrected), PBMCs", "setting": "PBMCs", "result": 39.2}]}
